Experimental data reported in PMC11597386, “Pharmacokinetics and Quantitative Structure–Pharmacokinetics Relationship Study of Xanthine Derivatives with Antidepressant, Anti-Inflammatory, and Analgesic Activity in Rats” (Pharmaceutics, 2024).
Where two headings read alike, the source gives them in different places.

Experiments:
[1] = Pharmacokinetics after single intravenous administration to cannulated rats, noncompartmental analysis; assay type: in vivo, rat; conditions: for clearance / Vd / half-life: male, Wistar, rat, plasma, iv; for clearance: read-out: CL, total body clearance; for Vd: read-out: Vz, volume of distribution based on the terminal phase; for half-life: read-out: t0.5λz, terminal half-life
Protocol: Male Wistar rats, 15–17 weeks of age and weighing between 250 and 350 g, purchased from the Animal Facility of the Jagiellonian University Medical College, Krakow, Poland, were used in all experiments. They were kept under conditions of constant temperature (21–25 °C) and relative humidity of approximately 40–65% with a standard light/dark cycle. Animals were housed in stainless steel cages with suspended wire mesh floors (maximum of 5 rats per cage) with free access to distilled water and the commercial rodent chaw. All study protocols were approved by the First Local Ethical Committee on Animal Testing of the Jagiellonian University (licenses no. Zi/604/2011 and 13/2014).
Three days prior to the experiment, the rat’s jugular vein was cannulated (SAI Infusion Technologies, Lake Villa, IL, USA), allowing for multiple blood samples from a single animal. […] The doses were selected based on the results of our previous studies on rats and mice. Four rats per compound were used. Multiple blood samples were taken over a period of at least 120 min into heparinized tubes; plasma was separated by centrifugation (Universal 32, Hettich, Germany) at 1400× g for 20 min and stored at −80 °C until analysis.
(§1) For the purpose of the quantitative analysis of free and total plasma concentrations of studied compounds, different analytical methods were developed. Theo was extracted from the biological samples by liquid–liquid extraction using dichloromethane. The mixture consisting of 100 μL of rat plasma or ultrafiltrate, 10 μL of theobromine (25 μg/mL in methanol) used as IS, 20 μL of 0.1 M HCl, and 5 mL of dichloromethane was agitated on a shaker (VXR Vibrax, IKA, Staufen, Germany) and subsequently centrifuged for 20 min at 3000 rpm (Universal 32, Hettich, Germany). A clear supernatant (4 mL) was transferred into a glass conical tube and evaporated to dryness under a stream of nitrogen in a water bath at 37 °C. The residue was then reconstituted in 100 μL of methanol, vortexed for 30 s, and the solution was transferred into the automatic sampler vials. Finally, 10–50 μL aliquot was injected into the HPLC/DAD system (LaChrome Elite, Merck-Hitachi, Germany). Chromatographic separation was performed on the LiChrospher 100 RP-18 (250 × 4 mm i.d., 5 µm particle size) analytical column coupled with a LiChroCART® guard column (4.0 × 4.0 mm, 5 μm) from Merck (Darmstadt, Germany). The mobile phase consisted of a mixture of methanol and deionized water (20:80, v/v) and was pumped through the system at a flow rate of 1.0 mL/min. The peaks were detected by a DAD detector at the wavelength of 271 nm. […] The analytical run lasted 20 min.
Plasma or ultrafiltrate samples containing PTX or (R)-LSF were placed in a glass tube and spiked with 10 µL of the IS solution (100 µg/mL temazepam in methanol). Samples were then acidified with 20 µL of 0.1 M hydrochloric acid, and 3 mL of dichloromethane was added to each sample. Tubes were shaken for 20 min and subsequently centrifuged (2000× g, 20 min). Then, 2.5 mL of dichloromethane was transferred to a clean glass conical tube and evaporated under a gentle stream of nitrogen in a water bath at 37 °C. The dried residue was dissolved in 100 µL of the mobile phase, and 50 µL of this solution was injected into the HPLC column. Analysis was performed on a 250 × 4.6 mm Chiralpak AD column (Daicel Corp., Tokyo, Japan) with 10 μm particle size, protected with a 20 × 4.6 mm LC-Si guard-column (Supelco Inc., Bellefonte, PA, USA). Mobile phase consisted of hexane: 2-propanol, 84:16 (v/v), and 0.01% diethylamine and was pumped at a flow rate of 1.4 mL/min. Calibration curves were linear in a range of 0.1–50 mg/L. The retention times of IS, PTX, and (R)-LSF were 7, 16, and 20 min, respectively. […]

[2] = Plasma protein binding / unbound fraction by ultrafiltration of plasma collected 15 min after i.v. administration; assay type: in vitro ADME; conditions: male, Wistar, rat, intravenous
Protocol: The free concentrations of studied compounds in plasma were determined and unbound fraction (fu) was calculated in all available plasma samples obtained 15 min after the intravenous administration. At this time point, 500–600 µL of blood was collected and plasma samples obtained were divided into two portions: 150–200 µL for measurement of free compound concentrations and 100 µL for measurement of the total drug concentrations. Plasma proteins were separated by an ultrafiltration method using Centrifree® devices with Ultracel PL regenerated cellulose membrane, 30,000 NMWL (Merck, Germany). For direct measurement of the free concentrations of compounds, each plasma sample was transferred to a sample reservoir of the disposable filter unit and centrifuged (1000× g) for 20 min at 25 °C. An aliquot of the ultrafiltrate was directly subjected to analysis. Free and total compound concentrations were measured by a high-performance liquid chromatography method with diode-array detection (HPLC-DAD) or liquid chromatography with tandem mass spectrometry (LC-MS/MS).
as §1, with “Theo was extracted from the biological samples by liquid–liquid extraction using dichloromethane.” left out
Plasma or ultrafiltrate samples containing PTX or (R)-LSF were placed in a glass tube and spiked with 10 µL of the IS solution (100 µg/mL temazepam in methanol). Samples were then acidified with 20 µL of 0.1 M hydrochloric acid, and 3 mL of dichloromethane was added to each sample. Tubes were shaken for 20 min and subsequently centrifuged (2000× g, 20 min). Then, 2.5 mL of dichloromethane was transferred to a clean glass conical tube and evaporated under a gentle stream of nitrogen in a water bath at 37 °C. The dried residue was dissolved in 100 µL of the mobile phase, and 50 µL of this solution was injected into the HPLC column. Analysis was performed on a 250 × 4.6 mm Chiralpak AD column (Daicel Corp., Tokyo, Japan) with 10 μm particle size, protected with a 20 × 4.6 mm LC-Si guard-column (Supelco Inc., Bellefonte, PA, USA). Mobile phase consisted of hexane: 2-propanol, 84:16 (v/v), and 0.01% diethylamine and was pumped at a flow rate of 1.4 mL/min. […] HPLC system (Thermo Separation Product, San Jose, CA, USA) consisted of a UV/VIS spectrophotometric detector (Spectra 100) with absorbance set at 275 nm, P100 pump, and Rheodyne 7125 manual injector (Alltech Associates, Deerfield, IL, USA) with a 50 µL sample loop. Chromatograms were recorded and integrated with an SP 4400 ChromJet integrator (San Jose, CA, USA).

plasma proteins = test system: plasma proteins; parameters: method as in earlier work; conditions: cited from earlier work
[3] = male Wistar rats, single i.v. dose (50 mg/kg Theo; 40 mg/kg PTX, LSF; 5 mg/kg GR-1 to GR-5; 2 mg/kg GR-6 to GR-8), geometric mean, n = 4
[4] = rat plasma 15 min after i.v. administration, ultrafiltration, geometric mean, n = 4, read-out: fb, fraction bound to plasma proteins (converted)
[5] = rat plasma 15 min after i.v. administration, ultrafiltration, geometric mean, n = 4, read-out: fu, fraction unbound in plasma
[6] = rat plasma proteins, read-out: percent of plasma protein binding (converted)

Row | Vss, volume of distribution at steady-state [1, 3] [L/kg] | clearance [1] [mL/min/kg] | Vd [1] [L/kg] | half-life [1] [min] | fraction unbound at 15 min [2, 4] | fraction unbound at 15 min [2, 5] | fraction unbound at 15 min [2, 6] | Vz, volume of distribution based on the terminal phase [1, 3] [L/kg] | Structure (SMILES) | percent of plasma protein binding (plasma proteins)
1 |  | 33.1 | 2.17 | 45.4 | 0.08 | 0.08 |  |  | Cn1c(=O)c2c(ncn2CCCCN2CCN(c3cccc(Cl)c3)CC2)n(C)c1=O [GR-1] | 
2 |  | 29.6 | 1.52 | 35.6 | 0.29 | 0.29 | 0.28 to 0.29 |  | Cn1c(=O)c2c(ncn2CCCCCN2CCN(c3ccccc3)CC2)n(C)c1=O [GR-2] | 
3 |  | 23.6 | 1.7 | 49.8 | 0.28 | 0.28 | 0.28 to 0.29 |  | COc1ccccc1N1CCN(CCCCCn2cnc3c2c(=O)n(C)c(=O)n3C)CC1 [GR-3] | 
4 |  | 26.4 | 1.9 | 50 | 0.06 | 0.06 |  |  | Cn1c(=O)c2c(ncn2CCCCCN2CCN(c3cccc(Cl)c3)CC2)n(C)c1=O [GR-4] | 
5 | 0.78 | 25.3 | 1.43 | 39 | 0.89 | 0.89 | 0.89 |  | CCOc1nc2c(c(=O)n(C)c(=O)n2C)n1CCCC(=O)NN [GR-5] | 
6 | 0.49 | 43.1 |  | 17.1 | 0.31 | 0.31 |  | 1.06 | COc1nc2c(c(=O)n(C)c(=O)n2C)n1CCCC(=O)O [GR-6] | 
7 | 0.78 | 43.2 | 0.95 | 15.2 | 0.13 | 0.13 |  |  | COc1nc2c(c(=O)n(C)c(=O)n2C)n1CCCC(=O)NCc1ccccc1 [GR-7] | 
8 | 0.33 | 68.1 | 0.66 | 6.75 | 0.14 | 0.14 |  |  | COC(=O)Cn1c(=O)[nH]c2c1c(=O)n(C)c(=O)n2C [GR-8] | 

More lines, now with the values behind:

Row | Structure (SMILES) | Vss, volume of distribution at steady-state [1, 3] [L/kg] | clearance [1] [mL/min/kg] | Vd [1] [L/kg] | half-life [1] [min] | fraction unbound at 15 min [2, 4] | fraction unbound at 15 min [2, 5] | fraction unbound at 15 min [2, 6] | Vz, volume of distribution based on the terminal phase [1, 3] [L/kg] | percent of plasma protein binding (plasma proteins)
9 | C[C@@H](O)CCCCn1c(=O)c2c(ncn2C)n(C)c1=O [(R)-LSF, R-lisofylline, reference compound] | 0.78 | 22.1 | 0.82 | 25.7 | 0.79 | 0.79 | 0.79 |  | 
10 | CC(=O)CCCCn1c(=O)c2c(ncn2C)n(C)c1=O [PTX, pentoxifylline, reference compound] | 0.92 | 55.5 | 1.18 | 14.7 | 0.19 | 0.19 |  |  | 
11 | Cn1c(=O)c2[nH]cnc2n(C)c1=O [Theo, theophylline, reference compound] | 0.72 | 2.14 | 0.73 | 236 |  |  |  |  | 
12 | Cn1c(=O)c2c(ncn2CC(O)CO)n(C)c1=O (centres unmarked) [diprophyllinum] |  |  |  |  |  |  |  |  | 84–90%
